Columns and labels:
[1] = system: human fetal neurons; conditions: for neuroprotection against synergistic toxicity of HIV proteins plus cocaine (percent neuronal death): pretreatment before Tat1-72 (40 nM) + gp120 (32.5 pM) + cocaine (1.6 μM); for magnitude of cell death vs Locke's buffer control: HIV proteins plus cocaine challenge with steroid pretreatment
Protocol: Culture of Human Brain Cells: Neuronal cultures were prepared as described previously (Magnuson D S, et al. Ann Neurol 1995, 37: 373-380; Nath A, et al. J Virol 1996, 70: 1475-1480; New D, et al. J Neurovirol 1997, 3: 168-173). Human fetal brain specimens of gestational age 12-14 weeks were obtained with the consent of women opting for elective termination of pregnancy. Protocols were carried out with strict adherence to the guidelines of the National Institutes of Health (NIH) and with approval from the University of Kentucky Institutional Review Board. Briefly, after mechanical dissociation, the cells were suspended in Opti-MEM with 5% heat-inactivated fetal bovine serum, 0.2% N2 supplement and 1% antibiotic solution (penicillin G sodium 104 units/ml, streptomycin sulfate 10 μg/ml and amphotericin-B 25 μg/ml) (GIBCO). The cells were maintained in culture flasks at 37° C. in a humidified atmosphere of 5% CO2 and 95% air for at least a month. At least 3 days before the experiment was performed the cells were plated in flat bottom 96 well plates coated with poly-d-lysine. Sample cultures were stained for the neuron-specific enolase, microtubule-associated protein-2, synaptophysin, and glial fibrillary astrocytic protein (GFAP). […] Sample cultures were further characterized for the presence of ER-α and ER-β and dopaminergic neurons.
Neurotoxicity Assay: At the time of the experimental treatment, the culture media was replaced with Locke's buffer containing (in mM) 154 NaCl, 5.6 KCl, 2.3 CaCl2, 1 MgCl2, 3.6 NaHCO3, 5 glucose, 5 N-2-hydroxyethylpiperazine-N′2-ethanesulfonic acid (HEPES) and 1% antibiotic solution (penicillin G sodium 104 units/ml, streptomycin sulfate 10 μg/ml and amphotericin-B 25 μg/ml) (pH 7.2). […] To replicate the stereoisomer specific neuroprotective properties of estrogen, the cultures were treated with either […] (10 nM), or 17α-E2 (10 nM) immediately preceding addition of the HIV proteins plus cocaine. To investigate the neuroprotective properties of other gonadal steroids, the cells were treated with various concentrations of PROG or T, immediately followed by exposure to the HIV proteins plus cocaine. […] Various concentrations of cholesterol were used as treatment prior to incubation with the HIV proteins plus cocaine to further characterize the nature of gonadal steroid neuroprotection. ICI-182,780, DMSO (10 nM), β-cyclodextrin (100 nM) and ethanol (10 nM) were also tested for neurotoxic/protective effects. ICI-182,780 and 17α-E2 were solvated in DMSO. […], T, PROG and cholesterol were β-cyclodextrin encapsulated to provide water solubility. Ethanol was used to solvate DHT. Tat1-72 was produced as indicated above, whereas gp120 was a gift from Chiron Corporation. The ICI-182,780 compound was obtained from Tocris Cookson, Inc. (Ellisville, Mo.). All other chemical agents were supplied by Sigma Chemicals (St. Louis, Mo.). At the end of the incubation period neuronal death was assessed by trypan blue (Sigma) exclusion assay as described previously (Vongher J and Frye C. Pharmacol Biochem Behav 1999, 64: 777-785; Magnuson D S, et al. Ann Neurol 1995, 37: 373-380; Nath A, et al. J Virol 1996, 70: 1475-1480).

[2] = system: Sprague-Dawley rats; assay: Neonatal hippocampal gp120 injections with or without apomorphine: PPI in adult rats; assay type: in vivo, rat
[3] = biological target: T1, dopamine transporter (Rattus norvegicus, UniProt P23977); assay: [3H] dopamine uptake in rat striatal synaptosomes; assay type: biochemical
T1 construct: followed by differential centrifugation resulting in a crude P2 preparation; from tissue; host or cells: rat striatum (synaptosomes, crude P2 preparation)
T1 sequence (P23977 whole entry): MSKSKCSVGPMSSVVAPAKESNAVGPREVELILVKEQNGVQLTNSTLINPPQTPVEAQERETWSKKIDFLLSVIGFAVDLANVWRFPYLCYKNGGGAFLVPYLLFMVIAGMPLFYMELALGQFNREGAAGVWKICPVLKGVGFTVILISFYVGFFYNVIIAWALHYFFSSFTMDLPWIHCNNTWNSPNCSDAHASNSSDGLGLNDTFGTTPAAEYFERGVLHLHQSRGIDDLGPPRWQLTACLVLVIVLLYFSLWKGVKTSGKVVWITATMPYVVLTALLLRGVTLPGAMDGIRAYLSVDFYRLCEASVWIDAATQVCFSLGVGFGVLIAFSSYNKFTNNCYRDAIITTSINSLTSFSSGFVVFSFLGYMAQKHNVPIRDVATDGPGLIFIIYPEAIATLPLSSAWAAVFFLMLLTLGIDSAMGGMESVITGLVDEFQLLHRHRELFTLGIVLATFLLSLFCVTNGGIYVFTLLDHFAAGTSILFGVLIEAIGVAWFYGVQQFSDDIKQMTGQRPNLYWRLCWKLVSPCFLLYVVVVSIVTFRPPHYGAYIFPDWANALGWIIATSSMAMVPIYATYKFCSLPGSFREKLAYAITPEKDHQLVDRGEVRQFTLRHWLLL
Protocol: [^3H] Dopamine uptake in synaptosomes assays: Striatal tissue from 4-5 month old male Sprague-Dawley rats (N=4) was homogenized in 5 mL ice-cold 0.32 M sucrose using a glass/Teflon homogenizer followed by differential centrifugation resulting in a crude P2 preparation. Crude P2 preparations are resuspended to a final volume of 15 mL (0.13-0.15 μg protein/tube) in assay buffer (consisting of 25 mM HEPES, 120 mM NaCl, 5 mM KCl, 2.5 mM CaCl2, 1.2 mM MgSO4, […] ascorbic acid, 1 μM pargyline and 2 mg/mL D-(+) glucose). P2 preparation was then added to assay tubes in 400 μL, followed by 50 μL of buffer or drug. Uptake was initiated by the addition of [7, 8 ^3H] dopamine, 0.02 M acetic acid:ethanol (1:1) solution (Amersham Biosciences, UK). Synaptosomes were preincubated first with 100 nM E2 30 minutes to the initiation of uptake, followed by addition of the appropriate concentrations of gp120 (30 pM) and tat (60 nM), or both proteins, 15 minutes prior to the start of the uptake assay. […] Filters were washed 15 seconds with ice-cold 0.9% NaCl and total [^3H] dopamine uptake was determined by scintillation spectrophotometry. Nonspecific uptake was determined in a parallel set of tubes run in the presence of 1 μM Mazindol, a dopamine uptake inhibitor. Data are expressed as the mean±SEM (N=4).

[4] = system: SK-N-SH cells; assay: DCFH fluorescence (oxidative stress) in SK-N-SH cells; assay type: cell-based, human; conditions: for effect of hormone on tat+gp120-induced fluorescence: gp120 (30 pM)+tat (60 nM), hormone 0.1 to 100 nM
Protocol: Cell Culture Assays: SK-N-SH cells (ATCC) were grown in RPMI 1640 with 1% streptomycin/amphotericin and 10% FBS and incubated at 37° C. in the presence of 5% CO2. Cells were subcultured into 96-well plates at a density of 10^4 cell/well and used within 24 hours. Plates were first washed with warmed Krebs buffer (KHB). Stock DCFH in DMSO was diluted in KHB to a final concentration of 100 μM and incubated in each well for 30 minutes. DCFH dye was removed and cells were washed with warmed KHB and the appropriate drug or drug combination was added. Plates were returned to the incubator and drugs were allowed to incubate for 30 minutes. Incubation with the free radical generator SIN-1 (3-morpholinosydnonimine-peroxynitrite and superoxide) was carried out for an additional 30 minutes. The second series of experiments utilized tat (10-250 nM) or gp120 (25-100 pM) in place of the free radical generator.
The concentration of either E2 or progesterone was 0.1 to 100 nM. Plates were returned to the incubator with the hormones and were allowed to incubate for 15 minutes. SIN-1 (50 μM) was chosen as the free radical generator due to the production of peroxynitrite. Previous studies have shown that this concentration of SIN-1 yielded maximum increases in DCFH fluorescence (Wang and Joseph, 1999). In groups that examined the protective effects of E2 and/or progesterone, the hormone was added 15 minutes prior to addition of SIN-1, tat or gp120. Studies that have examined the simultaneous addition of the oxidative stress agent and hormone have yielded attenuated results. Following incubation with SIN-1, tat or gp120 (depending on the assay), fluorescence was determined by using a Bio-Tek plate reader with the settings of 485 n (excitation) and 585 nm (emission) with an integration time of 40 ms. Assays were run four separate times in triplicate. Data are expressed as mean of the separate assays±SEM.

[5] = system: rat hippocampal neurons; assay: Live/Dead (Calcein/Ethidium) viability of rat hippocampal neuronal cultures
[6] = HIV proteins plus cocaine challenge

## C[C@]12CC[C@@H]3c4ccc(O)cc4CC[C@H]3[C@@H]1CC[C@H]2O [17α-E2]
[1]; 15 hours
  neuroprotection against synergistic toxicity of HIV proteins plus cocaine (percent neuronal death): not significantly different from the synergistic toxicity control

## CN1CCc2cccc3c2[C@H]1Cc1ccc(O)c(O)c1-3 [APO, apomorphine]
[2]; 8-120 msec ISIs
  peak ASR magnitude in PPI trials: gp120×drug interaction: significantly altered the gp120 dose response
[2]; rat, in vivo
  peak ASR latency in PPI trials: did not have an impact on latency response
  peak ASR magnitude, adaptation trials: apomorphine: attenuated the baseline of peak magnitude of the ASR

## CC(C)CCC[C@@H](C)[C@H]1CC[C@H]2[C@@H]3CC=C4C[C@@H](O)CC[C@]4(C)[C@H]3CC[C@]12C [Cholesterol]
[1]; [6]
  concentration dependence of effect on percent neuronal death: concentration-dependent effect of cholesterol with a significant linear decrease in percent neuronal death
  concentration giving maximal / full neuroprotection: 100 nM
[1]
  magnitude of cell death vs Locke's buffer control: not significantly different from that observed by Locke's buffer incubation
[1]; 15 hours
  neuroprotection against synergistic toxicity of HIV proteins plus cocaine (percent neuronal death): Significant neuroprotection

## C[C@]12CCC(=O)C[C@@H]1CC[C@@H]1[C@@H]2CC[C@]2(C)[C@@H](O)CC[C@@H]12 [DHT, 5α-Androstan-17β-ol-3-one; 17β-Hydroxy-5α-androstan-3-one]
[1]; [6]
  concentration dependence of effect on percent neuronal death: no concentration-dependent effect
[1]
  magnitude of cell death vs Locke's buffer control: significantly greater than that observed with Locke's Buffer control
[1]; 15 hours
  neuroprotection against synergistic toxicity of HIV proteins plus cocaine (percent neuronal death): significant neuroprotection

## C[C@]12CC[C@@H]3c4ccc(O)cc4CC[C@H]3[C@@H]1CC[C@@H]2O [E2, 17β-estradiol]
[3]; 100 nM E2 with gp120 and tat, control 231
  Vmax with gp120 + tat + E2: 220 nmol/mg protein/minute
[3]; co-incubation with 100 nM E2
  effect of E2 on gp120- or tat-induced reduction of [3H] dopamine uptake: reversed this reduction
[1]; 15 hours
  neuroprotection against synergistic toxicity of HIV proteins plus cocaine (percent neuronal death): precluded by pretreatment with 10 nM dose of 17β-E2
[4]; 100 nM E2, 50 μM SIN-1
  SIN-1-induced fluorescence at highest concentration of E2: reduced fluorescence levels to control values
[4]; 50 μM SIN-1, E2 0.1 to 100 nM
  lowest E2 concentration with significant reduction of SIN-1-induced fluorescence: 1 nM
[4]
  effect of hormone on tat+gp120-induced fluorescence: concentrations of 1, 10 and 100 nM E2 were each significantly (p<0.001) different from control values

## Fc1ccc(C(OCCN2CCN(CCCc3ccccc3)CC2)c2ccc(F)cc2)cc1 [GBR-12909]
[5]; doses from 0.05 to 6 μM
  neurotoxicity of GBR 12909 alone: not neurotoxic

## C[C@]12CC[C@@H]3c4ccc(O)cc4C[C@@H](CCCCCCCCC[S+]([O-])CCCC(F)(F)C(F)(F)F)[C@H]3[C@@H]1CC[C@@H]2O (stereo partly shown) [ICI-182,780]
[1]; ICI-182,780 100 nM pretreatment
  blockade of T (10 nM) neuroprotection: fully blocked
[1]; 15 hours
  neuroprotection against synergistic toxicity of HIV proteins plus cocaine (percent neuronal death): nor was it neuroprotective against the toxic challenge
[1]; substance alone, 15 hours
  toxicity alone vs Locke's buffer: not more toxic to the cultures than was Locke's buffer
[4]; 100 nM E2+1 μM ICI 182,780
  effect of ICI 182,780 on E2 attenuation of tat+gp120-induced fluorescence: Neither progesterone nor E2+ICI 182,780 values differed significantly from control values

## CC(=O)[C@H]1CC[C@H]2[C@@H]3CCC4=CC(=O)CC[C@]4(C)[C@H]3CC[C@]12C [PROG, progesterone]
[1]; [6]
  concentration dependence of effect on percent neuronal death: no concentration-dependent effect
[1]
  magnitude of cell death vs Locke's buffer control: significantly greater than that observed with Locke's Buffer control
[1]; 15 hours
  neuroprotection against synergistic toxicity of HIV proteins plus cocaine (percent neuronal death): significant neuroprotection
[4]
  effect of hormone on tat+gp120-induced fluorescence: had no effect on tat+gp120-induced fluorescence

## CN1CCc2cc(Cl)c(O)cc2[C@@H](c2ccccc2)C1 [SCH 23390]
[5]; 0.1 to 10 μM
  neuronal cell viability, SCH 23390 alone: did not cause any changes in neuronal cell viability

## N=c1c[n+](N2CCOCC2)[n-]o1 [SIN-1, 3-morpholinosydnonimine]
[4]; SIN-1 0-500 μM
  lowest concentration with significant increase in fluorescence: 5 µM

Reference: patent US20080306019A1, “Dopamine Receptor Agonists in the Treatment and Prevention of Hiv-Induced Dementia” (priority 2005, published 2008)
